The results in this text go back to ChEMBL document CHEMBL1177777, “Novel pyridobenzimidazole derivatives exhibiting antifungal activity by the inhibition of beta-1,6-glucan synthesis” (2010).

Test [1] deals with Nakaseomyces glabratus. The test can be described thus: Antifungal activity against Candida glabrata IFO 0622 after 24 hrs by microdilution method. The format is functional. The following applies: IFO 0622, 24 h. Background: Broth dilution looks for growth in wells or tubes with falling amounts of substance.
In test [2] the test system is Aspergillus fumigatus. Briefly: Antifungal activity against Aspergillus fumigatus ATCC 36607 after 24 hrs by microdilution method. The format is functional. The following applies: ATCC 36607, 24 h.
The subject of test [3] is Candida tropicalis. The test can be described thus: Antifungal activity against Candida tropicalis TIMM 0313 after 24 hrs by microdilution method. The format is functional. The following applies: TIMM 0313, 24 h.
Test [4] deals with Pichia kudriavzevii. The test can be described thus: Antifungal activity against Candida krusei TIMM 0269 after 24 hrs by microdilution method. The format is functional. The following applies: TIMM 0269, 24 h.
The subject of test [5] is Candida albicans. The test can be described thus: Antifungal activity against Candida albicans ATCC 24433 after 24 hrs by microdilution method. The following applies: ATCC 24433, 24 h. The format is functional.
The subject of test [6] is Candida albicans. Briefly: Antifungal activity against Candida albicans ATCC 24433 assessed as inhibition of beta-1,6-glucan synthesis. The format is functional, organism-based.
The test system of test [7] is Nakaseomyces glabratus. The test can be described thus: Antifungal activity against Candida glabrata IFO 0622 assessed as inhibition of beta-1,6-glucan synthesis. The format is functional, organism-based.
For test [8], the system named is Aspergillus fumigatus. Briefly: Antifungal activity against Aspergillus fumigatus ATCC 36607 assessed as inhibition of beta-1,6-glucan synthesis. The format is functional, organism-based.
The subject of test [9] is Pichia kudriavzevii. The test can be described thus: Antifungal activity against Candida krusei TIMM 0269 assessed as inhibition of beta-1,6-glucan synthesis. The format is functional, organism-based.
Test [10] has as its system Candida tropicalis. Briefly: Antifungal activity against Candida tropicalis TIMM 0313 assessed as inhibition of beta-1,6-glucan synthesis. The format is functional, organism-based.

In brackets after ≈: the same amount, converted by molar mass. Activity calls are given as the source filed them. The calls are words filed in the database; no cut-off is given here. A value given as a limit tells only on which side of the number the result lay.

Turning to `CCc1c(C)c(C#N)c2nc3ccccc3n2c1N1CC[C@@H](N(C)C)C1`, the MIC in test [1] is 1 µg/mL (≈ 2.88 µM); in test [2] it was more than 128 µg/mL; in [3] it was 64 µg/mL (≈ 184 µM); in [4], 16 µg/mL (≈ 46 µM); in test [5], more than 128 µg/mL.
Take `CCCCc1c(C)c(C#N)c2nc3ccccc3n2c1N1CC[C@H](N(C)C)C1`: the MIC in test [1] was not above 0.125 µg/mL; in test [2], more than 128 µg/mL; in test [3], 0.5 µg/mL (≈ 1.33 µM); in [4], 0.5 µg/mL (≈ 1.33 µM); in [5] it was more than 128 µg/mL.
For `CCc1c(C)c(C#N)c2nc3ccccc3n2c1NCCN(CC)CC`, the minimal inhibitory concentration (MIC) was 1 µg/mL (≈ 2.86 µM) in test [1]; more than 128 µg/mL in [2]; more than 128 µg/mL in [3]; 4 µg/mL (≈ 11.4 µM) in test [4]; more than 128 µg/mL in test [5].
With `Cc1c(-c2ccccc2)c(N2CC[C@H](N(C)C)C2)n2c(nc3ccccc32)c1C#N`, the inhibition entry in test [6], in test [7], in test [8], in test [9] and in test [10] was “Active” in each case. The MIC in test [1] was not above 0.125 µg/mL; in [2], more than 128 µg/mL; in test [3], 0.5 µg/mL (≈ 1.26 µM); in test [4], not above 0.125 µg/mL; in test [5], more than 128 µg/mL.
Regarding `Cc1c(CCO)c(N2CC[C@H](N(C)C)C2)n2c(nc3ccccc32)c1C#N`, the MIC in test [1] was 32 µg/mL (≈ 88 µM); in [2], more than 128 µg/mL; in [3], more than 128 µg/mL; in test [4], 16 µg/mL (≈ 44 µM); in test [5] it was more than 128 µg/mL.
With `CCc1c(C)c(C#N)c2nc3ccccc3n2c1N1CCC(N(C)C)CC1`, the MIC in test [1], in [2], in [3], in test [4] and in test [5] was more than 128 µg/mL throughout.
As to `CN(C)[C@H]1CCN(c2c(-c3ccccc3)cc(C#N)c3nc4ccccc4n23)C1`, the minimal inhibitory concentration (MIC) is not above 0.125 µg/mL in test [1]; more than 128 µg/mL in [2]; 8 µg/mL (≈ 21 µM) in test [3]; 2 µg/mL (≈ 5.24 µM) in test [4]; more than 128 µg/mL in test [5].
`CCc1c(C)c(C#N)c2nc3ccccc3n2c1N1CCCC1`: the MIC in test [1], in test [2], in [3], in test [4] and in [5] was more than 64 µg/mL throughout.
Take `CCc1c(-c2ccccc2)c(C#N)c2nc3ccccc3n2c1N1CC[C@H](N(C)C)C1`: the MIC in test [1], in test [2], in test [3], in [4] and in [5] was more than 128 µg/mL each time.
Take `Cc1c(F)c(N2CC[C@H](N(C)C)C2)n2c(nc3ccccc32)c1C#N`: the MIC was 4 µg/mL (≈ 11.9 µM) in test [1]; more than 128 µg/mL in [2]; more than 128 µg/mL in [3]; 16 µg/mL (≈ 47.4 µM) in [4]; more than 128 µg/mL in test [5].
On to `OC(Cn1cncn1)(Cn1cncn1)c1ccc(F)cc1F` [FLUCONAZOLE], for which the MIC in [1] was 2 µg/mL (≈ 6.53 µM); in test [2], more than 64 µg/mL; in test [3] it was 0.25 µg/mL (≈ 0.816 µM); in [4], 16 µg/mL (≈ 52.2 µM); in test [5] it was 0.25 µg/mL (≈ 0.816 µM).
For `CCc1c(C)c(C#N)c2nc3ccccc3n2c1NCCN`, the minimum inhibitory concentration (MIC) in [1] is 4 µg/mL (≈ 13.6 µM); in [2] it was more than 128 µg/mL; in [3] it was more than 128 µg/mL; in test [4] it was 32 µg/mL (≈ 109 µM); in [5], more than 128 µg/mL.
As for `CCc1c(C)c(C#N)c2nc3ccccc3n2c1N1CCN(C)CC1`, the MIC in test [1], in test [2], in [3], in [4] and in test [5] was more than 32 µg/mL in each case.
For the compound `CCc1c(C)c(C#N)c2nc3ccccc3n2c1N1CC[C@H](N(C)C)C1`, the minimal inhibitory concentration (MIC) in test [1] was 0.5 µg/mL (≈ 1.44 µM); in test [2], more than 128 µg/mL; in [3], 32 µg/mL (≈ 92.1 µM); in test [4] it was 2 µg/mL (≈ 5.76 µM); in test [5], more than 128 µg/mL.
Turning to `CCc1c(C)c(C(N)=O)c2nc3ccccc3n2c1NCCN(C)CC`, the MIC in test [1], in test [2], in test [3], in [4] and in test [5] was more than 128 µg/mL throughout.
`Cc1cc(N2CC[C@H](N(C)C)C2)n2c(nc3ccccc32)c1C#N`: the MIC in test [1] was 8 µg/mL (≈ 25 µM); in test [2] it was more than 128 µg/mL; in [3], more than 128 µg/mL; in [4] it was 32 µg/mL (≈ 100 µM); in test [5], more than 128 µg/mL.
Consider `CC(=O)OCCc1c(C)c(C#N)c2nc3ccccc3n2c1N1CC[C@H](N(C)C)C1`, for which the MIC in test [1] was 1 µg/mL (≈ 2.47 µM); in test [2], more than 128 µg/mL; in [3], 16 µg/mL (≈ 39.5 µM); in test [4], 4 µg/mL (≈ 9.86 µM); in [5], more than 128 µg/mL.
On to `CCc1c(C)c(C#N)c2nc3ccccc3n2c1NCCCN(C)C`, for which the MIC in test [1], in test [2], in [3], in [4] and in [5] was more than 128 µg/mL throughout.
Turning to `CCCNc1c(CC)c(C)c(C#N)c2nc3ccccc3n12`, the minimum inhibitory concentration (MIC) in test [1], in test [2], in test [3], in test [4] and in test [5] was more than 128 µg/mL each time.

The MIC is the lowest concentration found to suppress growth.
